Measurements reported in US8114590B2, “Diagnosis and treatment of chronic lymphocytic leukemia (CLL)” (The Regents of the University of California, priority 2005, dated 2012).

Legend:
[1] = test system: CLL-PBMC; conditions: literature (refs 8, 9, 13); cited from earlier work
[2] = test system: CLL-PBMC; conditions: 72 h
Protocol: (§1) Apoptosis: PBMC (1 million cells/ml) from B-CLL patients or normal subjects were cultured in RPMI media supplemented with 10% FBS, L-glutamine and penicillin/streptomycin at 37° C. in 5% CO2 and treated with either vehicle or the PDE7 inhibitor BRL-50481 for 72 h. Apoptosis was assessed by flow cytometry as the percentage of cells stained with Annexin V and Propidium Iodide (PI) and analyzed by FACScan using CELLQuest software (Becton-Dickinson Immunocytometry System) (18).
(§2) PBMC from CLL patients (n=10) and normal subjects (n=6) were grown in the absence or presence of BRL-50481 (10 μM, 30 μM and 100 μM) for 72 h.

[3] = test system: normal-PBMC; conditions: 10, 30 and 100 μM, 72 h, normal subjects n=6
Protocol: as §1, §2

[4] = test system: CD8+ T-lymphocytes; conditions: 30 μM, literature (ref 25); cited from earlier work
[5] = test system: monocytes or macrophages; conditions: 30 μM, literature (ref 25); cited from earlier work

SMILES | induction of apoptosis in CLL-PBMC [1] | dose dependence of apoptosis induction in CLL-PBMC ([2]; 10 μM, 30 μM and 100 μM) | increase in apoptosis in CLL-PBMC ([2]; ≧30 uM, CLL patients n=10, relative to vehicle control) | induction of apoptosis in PBMC from normal subjects [3] | inhibition of IL-5-promoted proliferation of CD8+ T-lymphocytes [4] | effect on TNFα release in monocytes or macrophages [5]
Cn1c(=O)c2[nH]cnc2n(C)c1=O [theophylline] | induces apoptosis | – | – | – | – | –
Cc1ccc([N+](=O)[O-])cc1S(=O)(=O)N(C)C [BRL-50481, 3-(N,N-dimethylsulfonamido)-4-methyl-nitrobenzene] | – | consistently and dose-dependently induced apoptosis | 20-40% | not in PBMC from normal subjects | failed to inhibit | little effect
CN(C(=O)CCCOc1ccc2[nH]c(=O)ccc2c1)C1CCCCC1 [cilostamide] | does not induce apoptosis | – | – | – | – | –
